Where “and” joins values, the source holds several entries; their conditions need not be identical. Equal values may be shown once. Where a name gives a salt, the structure may show the parent alone.
Settings: instrument: DT, single field, calibrated with ESI Low Concentration Tuning Mix (Agilent)

collision cross section (N2) ([M+Na-2H]-)	collision cross section (N2) ([M+Na]+)	collision cross section (N2) ([M-H]-)	collision cross section (N2) ([M+H]+)	collision cross section (N2) ([M+K]+)	Compound
182.8 Å²	197 Å²	189.2 Å²	193.6 Å²		O=c1nc[nH]c2c1ncn2[C@@H]1O[C@H](COP(=O)(O)OP(=O)(O)OP(=O)(O)O)[C@@H](O)[C@H]1O [INOSINE TRIPHOSPHATE]
	151.1 Å²	133.9 Å²	136.7 Å²		O=C(O)c1cc(=O)c2ccccc2[nH]1 [KYNURENATE]
			132.9 Å²		C[N+](C)(C)C[C@H](O)CC(=O)[O-] [L-CARNITINE]
			127.7 Å²		NCCC[C@H](N)C(=O)O [L-ORNITHINE]
	175.3 Å²	176.9 Å²		178.6 Å²	OC[C@H]1O[C@@H](O[C@H]2[C@H](O)[C@@H](O)[C@H](O)O[C@@H]2CO)[C@H](O)[C@@H](O)[C@H]1O [LACTOSE]
	213.1 Å²	206.6 Å²			C[C@H](CCC(=O)NCCS(=O)(=O)O)[C@H]1CC[C@H]2[C@@H]3CC[C@@H]4C[C@H](O)CC[C@]4(C)[C@H]3CC[C@]12C [LITHOCHOLYLTAURINE]
	135.5 Å²	133.5 Å² and 133.7 Å²	131.2 Å² and 131.4 Å²		NCCCC[C@H](N)C(=O)O [LYSINE]
	136.8 Å²				OC1OC[C@@H](O)[C@H](O)[C@@H]1O (stereo not given in full) [LYXOSE]
	172.4 Å²	166.9 Å²	162.5 Å² and 170.7 Å²		CSC[C@H]1O[C@@H](n2cnc3c(N)ncnc32)[C@H](O)[C@@H]1O [METHYLTHIOADENOSINE]
	162 Å²		158 Å²		CC(=O)NCCCNCCCCNCCCN [N1-ACETYLSPERMINE]
	139.3 Å²	131 Å²			CC(=O)N[C@@H](CC(=O)O)C(=O)O [N-ACETYLASPARTATE]
	140.9 Å²				CC(=O)N[C@@H](CS)C(=O)O [N-ACETYLCYSTEINE]
	133 Å²				CC(=O)NCC(=O)O [N-ACETYLGLYCINE]
	150.1 Å²	142.6 Å²			CSCC[C@H](NC(C)=O)C(=O)O [N-ACETYLMETHIONINE]
	149.4 Å²	146.9 Å²			CC(=O)NC(Cc1ccccc1)C(=O)O (stereo not given) [N-ACETYLPHENYLALANINE]
	145.3 Å²	136.1 Å²			CSCC[C@H](NC=O)C(=O)O [N-FORMYL-L-METHIONINE]

Continued, molecule first:

Compound	collision cross section (N2) ([M+Na-2H]-)	collision cross section (N2) ([M+Na]+)	collision cross section (N2) ([M-H]-)	collision cross section (N2) ([M+H]+)	collision cross section (N2) ([M+K]+)
O=P(O)(O)OC[C@H]1OC(O)[C@H](O)[C@@H](O)[C@@H]1O (stereo not given in full) [GLUCOSE 6-PHOSPHATE]	156.9 Å²	158.1 Å²	146.5 Å² and 146.6 Å²		
N[C@@H](CCC(=O)N[C@@H](CS)C(=O)NCC(=O)O)C(=O)O [GLUTATHIONE REDUCED]	164.8 Å²	167 Å²	162.1 Å²	167.8 Å²	
O=P(O)(O)OCC(O)CO (stereo not given) [GLYCEROL 3-PHOSPHATE]		137.1 Å²	127.2 Å²		
C[C@H](CCC(=O)NCC(=O)O)[C@H]1CC[C@H]2[C@@H]3[C@H](O)C[C@@H]4C[C@H](O)CC[C@]4(C)[C@H]3C[C@H](O)[C@]12C [GLYCOCHOLATE]		202.2 Å²	202.2 Å²	199.7 Å²	208 Å²
O=C(O)CNC(=O)c1ccccc1 [HIPPURATE]		149.6 Å²	142 Å²		
NC(CCO)C(=O)O (stereo not given) [HOMOSERINE]			120.2 Å²	125.9 Å²	
COc1cc(CC(=O)O)ccc1O [HOMOVANILLATE]		146.2 Å²	136 Å²		
O=C(O)C(O)Cc1ccc(O)cc1 (stereo not given) [HYDROXYPHENYLLACTATE]		144.2 Å²	141.9 Å²		
O=C(O)Cc1c[nH]c2ccccc12 [INDOLE-3-ACETATE]		143.5 Å²		135.9 Å²	
O=S(=O)(O)Oc1c[nH]c2ccccc12 [INDOXYL SULFATE]			143.3 Å²		
O=c1nc[nH]c2c1ncn2[C@@H]1O[C@H](COP(=O)(O)OP(=O)(O)O)[C@@H](O)[C@H]1O [INOSINE 5'-DIPHOSPHATE]	180 Å²	184 Å²		186.6 Å²	

Reference: the C3SDB collision cross section collection
